Experimental data reported in ChEMBL document CHEMBL1201862, “PubChem BioAssay data set” (2004).
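Values below derive from 48-hour exposures of cells grown in 96-well plates, with endpoints linearly interpolated between the two concentrations bracketing the appropriate inhibition level. GI50 marks 50% less growth.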 The source made the active and inactive calls. Rule as the data show it: active = GI50 up to about 1.1 µM and inactive = higher.

Experiments:
Assay in all cases: inhibition of tumour cell growth, NCI panel, 48 h
MDA-MB-231 = test system: MDA-MB-231
UACC-62 = test system: UACC-62
HL-60 = test system: HL-60
RPMI-8226 = test system: RPMI-8226
NCI-H226 = test system: NCI-H226
SF-539 = test system: SF-539
K562 = test system: K562
OVCAR-8 = test system: OVCAR-8
TK-10 = test system: TK-10
SK-MEL-28 = test system: SK-MEL-28
CAKI-1 = test system: CAKI-1
UO-31 = test system: UO-31
ACHN = test system: ACHN
DU-145 = test system: DU-145
KM12 = test system: KM12
NCI-H460 = test system: NCI-H460
A498 = test system: A498
SNB-75 = test system: SNB-75
NCI/ADR-RES = test system: NCI/ADR-RES
Hs-578T = test system: Hs-578T

SMILES	GI50 (MDA-MB-231)	GI50 (UACC-62)	GI50 (HL-60)	GI50 (RPMI-8226)	GI50 (NCI-H226)	GI50 (SF-539)	GI50 (K562)	GI50 (OVCAR-8)	GI50 (TK-10)	GI50 (SK-MEL-28)	GI50 (CAKI-1)	GI50 (UO-31)	GI50 (ACHN)	GI50 (DU-145)	GI50 (KM12)	GI50 (NCI-H460)	GI50 (A498)	GI50 (SNB-75)	GI50 (NCI/ADR-RES)	GI50 (Hs-578T)
C=C(CN(C)C)C(=O)c1ccccc1	15.1 µM (inactive)	14.8 µM (inactive)	0.577 µM (active)	4.13 µM (inactive)	18.3 µM (inactive)	8.34 µM (inactive)	2.07 µM (inactive)	19.5 µM (inactive)	4.49 µM (inactive)	16.5 µM (inactive)	4.75 µM (inactive)	6.93 µM (inactive)	2.7 µM (inactive)	16.6 µM (inactive)	19.9 µM (inactive)	18.4 µM (inactive)	20.7 µM (inactive)	17 µM (inactive)	32 µM (inactive)	26.2 µM (inactive)
CCOC1=NC(C(F)(F)F)(C(F)(F)F)N=C(N2CCCCC2)O1	> 100 µM (inactive)	> 100 µM (inactive)	29.3 µM (inactive)	> 100 µM (inactive)	> 100 µM (inactive)	> 100 µM (inactive)	> 100 µM (inactive)	> 100 µM (inactive)	> 100 µM (inactive)	> 100 µM (inactive)	> 100 µM (inactive)	> 100 µM (inactive)	> 100 µM (inactive)	> 100 µM (inactive)	> 100 µM (inactive)	> 100 µM (inactive)	> 100 µM (inactive)	> 100 µM (inactive)	> 100 µM (inactive)	> 100 µM (inactive)
c1csc(-c2cscc2-c2ccsc2)c1	> 100 µM (inactive)	70.3 µM (inactive)	30.5 µM (inactive)	34 µM (inactive)	> 43.5 µM (inactive)	> 53.2 µM (inactive)	31.6 µM (inactive)	98.2 µM (inactive)	> 100 µM (inactive)	> 100 µM (inactive)	> 95.3 µM (inactive)	> 70.8 µM (inactive)	> 83.9 µM (inactive)	> 100 µM (inactive)	32.1 µM (inactive)	62.2 µM (inactive)	> 96.8 µM (inactive)	> 52.1 µM (inactive)	48.1 µM (inactive)	20.4 µM (inactive)
C=C(CN(C)C)C(=O)c1ccc(Oc2ccccc2)cc1	5.81 µM (inactive)	4.39 µM (inactive)	0.695 µM (active)	0.962 µM (active)	13.6 µM (inactive)	3.13 µM (inactive)	1.26 µM (inactive)	3.28 µM (inactive)	5.86 µM (inactive)	7.66 µM (inactive)	2.54 µM (inactive)	3.53 µM (inactive)	1.8 µM (inactive)	14.5 µM (inactive)	12.8 µM (inactive)	27.3 µM (inactive)	17.7 µM (inactive)	15.9 µM (inactive)	6.75 µM (inactive)	8.73 µM (inactive)
COc1ccc(NC/C=C/C(=C/COC(C)=O)OC(C)=O)cc1	1.78 µM (inactive)	3.82 µM (inactive)	2.27 µM (inactive)	0.252 µM (active)	19.3 µM (inactive)	2 µM (inactive)	1.85 µM (inactive)	4.23 µM (inactive)	1.87 µM (inactive)	1.87 µM (inactive)	1.89 µM (inactive)	12.3 µM (inactive)	1.73 µM (inactive)	3.11 µM (inactive)	0.448 µM (active)	2.08 µM (inactive)	1.39 µM (inactive)	7.23 µM (inactive)	2.59 µM (inactive)	2.12 µM (inactive)
O=C1C(Cl)=C(NCCO)C(=O)c2c(O)ccc(O)c21	1.95 µM (inactive)	1.7 µM (inactive)	2.6 µM (inactive)	3.12 µM (inactive)	> 10 µM (inactive)	2.52 µM (inactive)	2.59 µM (inactive)	3.84 µM (inactive)	> 10 µM (inactive)	1.92 µM (inactive)	> 10 µM (inactive)	6.7 µM (inactive)	5.01 µM (inactive)	2.36 µM (inactive)	2.05 µM (inactive)	1.85 µM (inactive)	1.36 µM (inactive)	4.38 µM (inactive)	5.18 µM (inactive)	6.56 µM (inactive)
Cc1ccc(/N=N/c2c(O)ccc3cc(S(=O)(=O)O)cc(S(=O)(=O)O)c23)cc1	> 100 µM (inactive)	> 100 µM (inactive)	> 100 µM (inactive)	< 0.01 µM (active)	> 100 µM (inactive)	> 100 µM (inactive)	> 100 µM (inactive)	> 100 µM (inactive)	> 100 µM (inactive)	> 100 µM (inactive)	> 100 µM (inactive)	> 100 µM (inactive)	> 100 µM (inactive)	> 100 µM (inactive)	> 100 µM (inactive)	> 100 µM (inactive)	> 100 µM (inactive)	> 100 µM (inactive)	> 100 µM (inactive)	> 100 µM (inactive)
